Measured values reported in ChEMBL document CHEMBL1201862, “PubChem BioAssay data set” (2004).
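Values below derive from 48-hour exposures of cells grown in 96-well plates, with endpoints linearly interpolated between the two concentrations bracketing the appropriate inhibition level. GI50 marks 50% less growth.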 Calls of active or inactive are those of the source. Cut-off read from the data, not from the text of the source: active = GI50 up to about 1.1 µM and inactive = higher.

What was measured:
Experiment in all cases: NCI-60 cell line screen, 48 h
LOX IMVI = tested on: LOX IMVI
SNB-75 = tested on: SNB-75
HT-29 = tested on: HT-29
NCI-H23 = tested on: NCI-H23
SK-MEL-28 = tested on: SK-MEL-28
CCRF-CEM = tested on: CCRF-CEM
SW-620 = tested on: SW-620
HL-60 = tested on: HL-60
SNB-19 = tested on: SNB-19
786-0 = tested on: 786-0
M14 = tested on: M14
SK-OV-3 = tested on: SK-OV-3
MDA-N = tested on: MDA-N
NCI-H460 = tested on: NCI-H460
UACC-257 = tested on: UACC-257
SF-295 = tested on: SF-295
K562 = tested on: K562
Malme-3M = tested on: Malme-3M
MCF7 = tested on: MCF7
SR = tested on: SR

| SMILES | GI50 (LOX IMVI) | GI50 (SNB-75) | GI50 (HT-29) | GI50 (NCI-H23) | GI50 (SK-MEL-28) | GI50 (CCRF-CEM) | GI50 (SW-620) | GI50 (HL-60) | GI50 (SNB-19) | GI50 (786-0) | GI50 (M14) | GI50 (SK-OV-3) | GI50 (MDA-N) | GI50 (NCI-H460) | GI50 (UACC-257) | GI50 (SF-295) | GI50 (K562) | GI50 (Malme-3M) | GI50 (MCF7) | GI50 (SR) |
| --- | --- | --- | --- | --- | --- | --- | --- | --- | --- | --- | --- | --- | --- | --- | --- | --- | --- | --- | --- | --- |
| COC(=O)c1c(C)cccc1C1CN=NC12Cc1cc(C)c(C)cc1C2=O (stereo not drawn) | 24.2 µM (inactive) | 38.1 µM (inactive) | 36.8 µM (inactive) | 29.9 µM (inactive) | > 100 µM (inactive) | 37.8 µM (inactive) | 52.6 µM (inactive) | 17.5 µM (inactive) | 44.5 µM (inactive) | 62.4 µM (inactive) | 40.6 µM (inactive) | 55.2 µM (inactive) | 25.6 µM (inactive) | 47.9 µM (inactive) | 27.2 µM (inactive) | 48.5 µM (inactive) | 25.4 µM (inactive) | 57.8 µM (inactive) | 33.6 µM (inactive) | – |
| C[C@@H](NC(=O)[C@@H]1C[C@]1(C)COC(=O)c1cc([N+](=O)[O-])cc([N+](=O)[O-])c1)c1cccc2ccccc12 | 60.1 µM (inactive) | 37.1 µM (inactive) | 52.2 µM (inactive) | > 100 µM (inactive) | > 100 µM (inactive) | > 100 µM (inactive) | > 100 µM (inactive) | – | > 100 µM (inactive) | > 100 µM (inactive) | > 100 µM (inactive) | > 100 µM (inactive) | > 100 µM (inactive) | > 100 µM (inactive) | > 100 µM (inactive) | 93.5 µM (inactive) | > 100 µM (inactive) | 6.87 µM (inactive) | > 100 µM (inactive) | > 100 µM (inactive) |
| C=CC[C@H](C)CCC(=O)N1[C@H]2CC3CC[C@@]2(CS1(=O)=O)C3(C)C | 30.8 µM (inactive) | – | 18.8 µM (inactive) | 22.7 µM (inactive) | > 100 µM (inactive) | 18.7 µM (inactive) | 79.8 µM (inactive) | 25.1 µM (inactive) | 87.9 µM (inactive) | 50.6 µM (inactive) | 35.6 µM (inactive) | > 100 µM (inactive) | 79.8 µM (inactive) | 30.5 µM (inactive) | 66.1 µM (inactive) | 45.2 µM (inactive) | – | 46.8 µM (inactive) | 33.9 µM (inactive) | 31.5 µM (inactive) |
| O=C(O)c1nc(-c2ccccn2)c(-c2ccccn2)nc1C(=O)O | 2.07 µM (inactive) | 3.49 µM (inactive) | 2.7 µM (inactive) | 5.3 µM (inactive) | 1.2 µM (inactive) | 2.44 µM (inactive) | 3.26 µM (inactive) | 2.25 µM (inactive) | 5.04 µM (inactive) | 2.61 µM (inactive) | 1.42 µM (inactive) | 3.77 µM (inactive) | 2.2 µM (inactive) | 0.719 µM (active) | 4.35 µM (inactive) | 2.49 µM (inactive) | 3.66 µM (inactive) | 1.66 µM (inactive) | – | 2.03 µM (inactive) |
| C[C@H]1[C@H](C)CC[C@]2(C)CC[C@]3(C)C(=C[C@@H](O)[C@@H]4[C@@]5(C)[C@H](O)[C@@H](O)[C@H](O)C(C)(C)[C@@H]5CC[C@]43C)[C@H]12 | > 100 µM (inactive) | – | > 100 µM (inactive) | > 100 µM (inactive) | – | > 100 µM (inactive) | > 100 µM (inactive) | > 100 µM (inactive) | > 100 µM (inactive) | > 100 µM (inactive) | > 100 µM (inactive) | > 100 µM (inactive) | > 100 µM (inactive) | > 100 µM (inactive) | > 100 µM (inactive) | > 100 µM (inactive) | > 100 µM (inactive) | – | > 100 µM (inactive) | > 100 µM (inactive) |
| CC(C)c1cc(CN(C)C)c(O)c(C(C)(C)C)c1 | 17.4 µM (inactive) | – | 36.2 µM (inactive) | 34.7 µM (inactive) | 28.1 µM (inactive) | 16.4 µM (inactive) | 20.2 µM (inactive) | 6.04 µM (inactive) | 23.6 µM (inactive) | 18.5 µM (inactive) | 28.4 µM (inactive) | 98.9 µM (inactive) | 26.6 µM (inactive) | 17.3 µM (inactive) | 15.3 µM (inactive) | 19 µM (inactive) | – | 22.2 µM (inactive) | 16.5 µM (inactive) | – |
| O=C(O)CSC(NC(=O)C(C(F)(F)F)C(F)(F)F)(C(F)(F)F)C(F)(F)F | > 100 µM (inactive) | > 100 µM (inactive) | > 100 µM (inactive) | > 100 µM (inactive) | > 100 µM (inactive) | > 100 µM (inactive) | > 100 µM (inactive) | > 100 µM (inactive) | > 100 µM (inactive) | > 100 µM (inactive) | > 100 µM (inactive) | > 100 µM (inactive) | > 100 µM (inactive) | – | > 100 µM (inactive) | – | > 100 µM (inactive) | – | – | > 100 µM (inactive) |
| ON=C1CCCCC(=NO)CCCC1 | > 100 µM (inactive) | > 100 µM (inactive) | > 100 µM (inactive) | > 100 µM (inactive) | > 100 µM (inactive) | – | > 100 µM (inactive) | – | > 100 µM (inactive) | > 100 µM (inactive) | – | > 100 µM (inactive) | > 100 µM (inactive) | > 100 µM (inactive) | > 100 µM (inactive) | > 100 µM (inactive) | > 100 µM (inactive) | > 100 µM (inactive) | > 100 µM (inactive) | – |
| Cc1cc(C)nc(NC(P(=O)(O)O)P(=O)(O)O)n1 | > 100 µM (inactive) | – | > 100 µM (inactive) | > 100 µM (inactive) | – | – | – | – | > 100 µM (inactive) | > 100 µM (inactive) | > 100 µM (inactive) | > 100 µM (inactive) | > 100 µM (inactive) | > 100 µM (inactive) | > 100 µM (inactive) | > 100 µM (inactive) | – | > 100 µM (inactive) | > 100 µM (inactive) | – |
| CC1=NN(c2cccc(Cl)c2)C2(SCC(=O)N2c2nc3ccccc3s2)/C1=C\c1ccc(Cl)cc1 (stereo not drawn) | 20.8 µM (inactive) | – | 19.4 µM (inactive) | 18.4 µM (inactive) | 24.5 µM (inactive) | 0.272 µM (active) | 14.4 µM (inactive) | 11.8 µM (inactive) | – | 21.6 µM (inactive) | 19.8 µM (inactive) | 21.5 µM (inactive) | 25.7 µM (inactive) | 15.8 µM (inactive) | 21.6 µM (inactive) | 17 µM (inactive) | 14.4 µM (inactive) | – | 22.2 µM (inactive) | 2.81 µM (inactive) |
| N#CC(C#N)=CNCCN1CCN(C=C(C#N)C#N)CC1 | > 100 µM (inactive) | – | > 100 µM (inactive) | > 100 µM (inactive) | > 100 µM (inactive) | – | > 100 µM (inactive) | > 100 µM (inactive) | > 100 µM (inactive) | > 100 µM (inactive) | > 100 µM (inactive) | > 100 µM (inactive) | > 100 µM (inactive) | > 100 µM (inactive) | > 100 µM (inactive) | > 100 µM (inactive) | > 100 µM (inactive) | > 100 µM (inactive) | > 100 µM (inactive) | > 100 µM (inactive) |
| CC(=O)N1N=C(c2ccc3ccccc3c2O)CC1c1ccc(N(C)C)cc1 (stereo not drawn) | – | > 100 µM (inactive) | > 100 µM (inactive) | > 100 µM (inactive) | > 100 µM (inactive) | > 100 µM (inactive) | > 100 µM (inactive) | – | – | > 100 µM (inactive) | > 100 µM (inactive) | > 100 µM (inactive) | > 100 µM (inactive) | > 100 µM (inactive) | > 100 µM (inactive) | > 100 µM (inactive) | > 100 µM (inactive) | > 100 µM (inactive) | > 100 µM (inactive) | 10.9 µM (inactive) |
| O=CN1CCN(C(=O)c2cc(Cl)cc(Cl)c2)C1=S | 7.13 µM (inactive) | 13.3 µM (inactive) | 24.3 µM (inactive) | 17.2 µM (inactive) | 18.4 µM (inactive) | 5.38 µM (inactive) | 19 µM (inactive) | 10.3 µM (inactive) | 20.5 µM (inactive) | 4.71 µM (inactive) | 15.6 µM (inactive) | 17.5 µM (inactive) | 18.8 µM (inactive) | 22.5 µM (inactive) | 17.4 µM (inactive) | 17.7 µM (inactive) | 14.8 µM (inactive) | 3.12 µM (inactive) | 3.47 µM (inactive) | – |
| C=C1C2CC3CCC2C(OC(=O)c2ccccc2C(=O)O)C13 (stereo not drawn) | > 100 µM (inactive) | 3.1 µM (inactive) | > 100 µM (inactive) | > 100 µM (inactive) | > 100 µM (inactive) | > 100 µM (inactive) | > 100 µM (inactive) | > 100 µM (inactive) | > 100 µM (inactive) | > 100 µM (inactive) | > 100 µM (inactive) | > 100 µM (inactive) | > 100 µM (inactive) | > 100 µM (inactive) | > 100 µM (inactive) | > 100 µM (inactive) | > 100 µM (inactive) | > 100 µM (inactive) | – | > 100 µM (inactive) |
| Cc1cn(C(=O)NC23CC4CC(CC(C4)C2)C3)c(=O)[nH]c1=O | 27.5 µM (inactive) | 31.7 µM (inactive) | 33.8 µM (inactive) | 32.1 µM (inactive) | 67.5 µM (inactive) | 25.6 µM (inactive) | 40.6 µM (inactive) | 26.4 µM (inactive) | 71.1 µM (inactive) | 37.2 µM (inactive) | 36.1 µM (inactive) | 34.4 µM (inactive) | 13.2 µM (inactive) | 42.9 µM (inactive) | 45.1 µM (inactive) | 36.5 µM (inactive) | 31.6 µM (inactive) | 44.7 µM (inactive) | 31.6 µM (inactive) | – |
